Results on five compounds are retold here after ChEMBL document CHEMBL5465560, “Selectivity Literature for EUbOPEN Chemogenomic Library” (2024).

Assay [1] concerns the target T1, 3-phosphoinositide-dependent protein kinase 1 (Homo sapiens) (UniProt O15530).
T1 sequence (whole entry): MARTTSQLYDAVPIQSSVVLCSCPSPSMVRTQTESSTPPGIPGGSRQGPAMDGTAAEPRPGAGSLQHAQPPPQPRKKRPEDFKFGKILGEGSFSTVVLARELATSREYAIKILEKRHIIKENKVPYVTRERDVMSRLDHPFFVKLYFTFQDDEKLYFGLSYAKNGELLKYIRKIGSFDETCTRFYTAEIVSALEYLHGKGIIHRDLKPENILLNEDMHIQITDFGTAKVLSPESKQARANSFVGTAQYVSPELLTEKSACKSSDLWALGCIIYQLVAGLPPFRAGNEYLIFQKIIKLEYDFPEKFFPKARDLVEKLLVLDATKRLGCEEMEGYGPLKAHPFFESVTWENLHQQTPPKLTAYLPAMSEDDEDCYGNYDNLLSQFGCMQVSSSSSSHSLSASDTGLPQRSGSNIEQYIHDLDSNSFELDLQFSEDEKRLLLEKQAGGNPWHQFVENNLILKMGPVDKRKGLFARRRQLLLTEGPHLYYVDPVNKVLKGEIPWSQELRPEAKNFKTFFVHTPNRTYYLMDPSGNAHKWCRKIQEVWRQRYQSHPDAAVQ
Briefly: Selectivity interaction (Ambit KINOMEscan and KiNATiv profiling in Jurkat cells) EUB0000090b PDPK1. It is filed as cell-based. The conditions noted are these: at 1 µM.

The target of assay [2] is T2, Mitogen-activated protein kinase kinase kinase kinase 3 (Homo sapiens) (UniProt Q8IVH8).
T2 sequence (whole entry): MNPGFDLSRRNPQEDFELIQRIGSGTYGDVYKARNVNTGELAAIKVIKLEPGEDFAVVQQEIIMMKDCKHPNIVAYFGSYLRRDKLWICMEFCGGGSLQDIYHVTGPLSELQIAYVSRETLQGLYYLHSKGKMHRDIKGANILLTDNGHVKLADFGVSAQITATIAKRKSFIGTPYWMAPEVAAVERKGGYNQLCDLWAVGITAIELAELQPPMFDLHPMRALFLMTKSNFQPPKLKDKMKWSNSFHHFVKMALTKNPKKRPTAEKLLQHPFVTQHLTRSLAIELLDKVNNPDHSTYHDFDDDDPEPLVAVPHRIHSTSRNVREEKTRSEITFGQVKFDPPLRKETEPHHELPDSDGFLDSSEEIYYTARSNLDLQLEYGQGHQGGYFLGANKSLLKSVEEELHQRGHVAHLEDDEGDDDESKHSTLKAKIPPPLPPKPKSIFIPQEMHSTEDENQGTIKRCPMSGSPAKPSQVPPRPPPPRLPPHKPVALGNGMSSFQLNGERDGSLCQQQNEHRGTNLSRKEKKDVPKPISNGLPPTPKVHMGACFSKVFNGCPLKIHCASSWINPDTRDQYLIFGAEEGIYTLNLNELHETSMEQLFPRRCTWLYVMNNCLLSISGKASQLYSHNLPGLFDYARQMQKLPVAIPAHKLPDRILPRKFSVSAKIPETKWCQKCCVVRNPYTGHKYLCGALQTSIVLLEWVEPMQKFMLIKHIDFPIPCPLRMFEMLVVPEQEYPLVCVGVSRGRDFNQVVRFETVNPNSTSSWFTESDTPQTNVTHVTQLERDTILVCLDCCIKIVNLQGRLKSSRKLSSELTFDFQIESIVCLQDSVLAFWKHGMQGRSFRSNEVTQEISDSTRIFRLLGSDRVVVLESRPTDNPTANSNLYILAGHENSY
Briefly: Selectivity interaction (KinomeScan (DiscoverX)) EUB0001619a MAP4K3. The conditions noted are these: at 1 µM.

Assay [3] deals with Cell division control protein 42 homolog (Homo sapiens) (UniProt P60953). As to the kind of experiment: Selectivity interaction (Kinase panel (Invitrogen)) EUB0000639a CDC42. The conditions noted are these: at 200 nM.
Assay [4] has as its target Mitogen-activated protein kinase kinase kinase 8 (Homo sapiens, UniProt P41279). Briefly: Selectivity interaction (Kinase panel (Invitrogen)) EUB0000639a MAP3K8. The conditions noted are these: at 200 nM.
Assay [5] deals with Non-receptor tyrosine-protein kinase TYK2 (Homo sapiens, UniProt P29597). Briefly: Selectivity interaction (KinomeScan (DiscoverX)) EUB0000695a TYK2. The conditions noted are these: at 100 nM.
The target in assay [6] is T3, Serine/threonine-protein kinase TAO3 (Homo sapiens) (UniProt Q9H2K8).
T3 sequence (whole entry): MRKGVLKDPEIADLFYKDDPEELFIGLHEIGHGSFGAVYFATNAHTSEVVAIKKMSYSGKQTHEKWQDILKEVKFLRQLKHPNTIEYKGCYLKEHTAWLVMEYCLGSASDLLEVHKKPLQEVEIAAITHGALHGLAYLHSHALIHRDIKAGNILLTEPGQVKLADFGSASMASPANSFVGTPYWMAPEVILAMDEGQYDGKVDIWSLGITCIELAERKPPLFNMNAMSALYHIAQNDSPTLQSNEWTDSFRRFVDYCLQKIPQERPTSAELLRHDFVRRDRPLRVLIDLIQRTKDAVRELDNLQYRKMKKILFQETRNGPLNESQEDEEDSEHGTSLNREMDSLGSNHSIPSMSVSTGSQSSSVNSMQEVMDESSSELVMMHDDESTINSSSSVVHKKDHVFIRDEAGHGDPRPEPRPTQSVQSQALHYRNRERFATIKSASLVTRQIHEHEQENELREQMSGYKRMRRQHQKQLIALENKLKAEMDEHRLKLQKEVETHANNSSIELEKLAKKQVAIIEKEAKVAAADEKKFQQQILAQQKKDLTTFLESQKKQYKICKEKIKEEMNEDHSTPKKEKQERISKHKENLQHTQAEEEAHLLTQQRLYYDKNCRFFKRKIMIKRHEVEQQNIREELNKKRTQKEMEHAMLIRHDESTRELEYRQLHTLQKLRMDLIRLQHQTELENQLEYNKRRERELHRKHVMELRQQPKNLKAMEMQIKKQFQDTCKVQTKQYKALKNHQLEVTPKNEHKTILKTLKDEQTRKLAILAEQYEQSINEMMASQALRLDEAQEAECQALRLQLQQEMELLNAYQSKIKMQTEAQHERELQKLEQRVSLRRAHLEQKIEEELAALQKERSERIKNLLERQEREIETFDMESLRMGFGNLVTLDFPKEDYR
Briefly: Selectivity interaction (KinomeScan (DiscoverX)) EUB0000092b TAOK3. The conditions noted are these: at 10 µM.

Chain of Mitogen-activated protein kinase kinase kinase 8 (P41279 whole entry): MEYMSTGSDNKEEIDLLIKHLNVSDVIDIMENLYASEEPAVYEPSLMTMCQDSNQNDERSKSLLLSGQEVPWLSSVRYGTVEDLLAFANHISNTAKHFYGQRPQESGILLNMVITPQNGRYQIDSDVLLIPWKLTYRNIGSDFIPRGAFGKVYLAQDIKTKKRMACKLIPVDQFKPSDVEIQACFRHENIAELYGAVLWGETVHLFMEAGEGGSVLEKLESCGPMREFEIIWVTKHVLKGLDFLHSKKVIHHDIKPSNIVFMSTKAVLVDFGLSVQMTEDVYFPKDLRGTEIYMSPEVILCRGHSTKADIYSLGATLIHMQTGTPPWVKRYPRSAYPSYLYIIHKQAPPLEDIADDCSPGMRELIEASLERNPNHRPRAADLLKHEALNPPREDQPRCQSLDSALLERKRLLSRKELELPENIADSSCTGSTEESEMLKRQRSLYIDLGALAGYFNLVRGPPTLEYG
Chain of Cell division control protein 42 homolog (Homo sapiens) (P60953 whole entry, looked up): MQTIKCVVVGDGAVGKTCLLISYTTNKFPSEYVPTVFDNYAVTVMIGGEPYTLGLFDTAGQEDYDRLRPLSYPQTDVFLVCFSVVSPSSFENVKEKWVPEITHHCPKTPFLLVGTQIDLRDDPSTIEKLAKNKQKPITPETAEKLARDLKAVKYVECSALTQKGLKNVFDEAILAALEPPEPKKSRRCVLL
Chain of Non-receptor tyrosine-protein kinase TYK2 (P29597 whole entry): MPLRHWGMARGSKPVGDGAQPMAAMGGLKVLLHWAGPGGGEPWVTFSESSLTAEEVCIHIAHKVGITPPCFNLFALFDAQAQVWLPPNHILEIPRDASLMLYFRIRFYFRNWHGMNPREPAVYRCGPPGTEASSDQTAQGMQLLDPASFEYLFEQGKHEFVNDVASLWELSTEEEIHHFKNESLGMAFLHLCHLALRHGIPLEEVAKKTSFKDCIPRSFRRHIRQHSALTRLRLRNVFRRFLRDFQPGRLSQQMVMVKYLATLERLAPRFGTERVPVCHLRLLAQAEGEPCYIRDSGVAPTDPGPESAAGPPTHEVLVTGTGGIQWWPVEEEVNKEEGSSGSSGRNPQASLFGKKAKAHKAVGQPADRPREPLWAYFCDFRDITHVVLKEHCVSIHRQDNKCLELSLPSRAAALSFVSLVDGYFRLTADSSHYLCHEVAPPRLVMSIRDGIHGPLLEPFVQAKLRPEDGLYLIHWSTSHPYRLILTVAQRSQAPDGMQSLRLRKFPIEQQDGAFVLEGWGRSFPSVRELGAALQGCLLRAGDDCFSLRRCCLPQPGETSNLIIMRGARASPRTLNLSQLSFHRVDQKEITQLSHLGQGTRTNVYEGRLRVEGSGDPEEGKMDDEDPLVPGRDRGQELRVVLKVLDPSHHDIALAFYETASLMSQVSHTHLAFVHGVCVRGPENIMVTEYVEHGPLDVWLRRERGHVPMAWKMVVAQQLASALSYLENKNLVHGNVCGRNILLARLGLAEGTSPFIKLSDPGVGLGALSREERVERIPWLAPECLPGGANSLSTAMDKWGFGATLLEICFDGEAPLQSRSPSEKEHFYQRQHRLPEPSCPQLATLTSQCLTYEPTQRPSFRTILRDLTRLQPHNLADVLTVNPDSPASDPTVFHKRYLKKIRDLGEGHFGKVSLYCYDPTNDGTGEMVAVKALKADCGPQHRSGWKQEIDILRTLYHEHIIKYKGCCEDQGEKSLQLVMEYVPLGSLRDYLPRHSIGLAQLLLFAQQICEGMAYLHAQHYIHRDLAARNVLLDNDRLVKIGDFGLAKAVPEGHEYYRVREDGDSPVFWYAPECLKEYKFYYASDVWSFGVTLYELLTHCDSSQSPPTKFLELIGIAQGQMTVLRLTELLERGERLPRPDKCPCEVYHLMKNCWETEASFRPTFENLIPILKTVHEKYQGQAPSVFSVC

In turn, `CN(C)C/C=C/C(=O)Nc1ccc(C(=O)N2CCCC(Nc3ncc(Cl)c(-c4c[nH]c5ccccc45)n3)C2)cc1` (stereo unspecified) showed a % of control in assay [1] of 99%. Turning to `N#Cc1cccc(-c2c[nH]c3ncnc(N4CCOCC4)c23)c1`, in assay [2], the % of control amounted to 4.8%. `CC[C@@H]1[C@H](F)C(=O)N[C@@H]1COc1nccc2cc(C(N)=O)c(OC)cc12` [ZIMLOVISERTIB]: the results for the % of inhibition in assay [3] and in assay [4] were 13.7% and 24.9%, respectively.

`Cc1cc(F)c(C(=O)Nc2cccc(-c3nncn3C(C)C)n2)cc1-n1cnc(C2CC2)c1` yielded a % of control in assay [5] of 81%. Take `CCC(=O)N1CCN(c2ccc(-n3c(=O)ccc4cnc5ccc(-c6cnc7ccccc7c6)cc5c43)cc2C(F)(F)F)CC1`: the % of control in assay [6] is 76%.
